Results from US8563588B2, “Imidazolone derivatives, method for the preparation thereof and biological applications” (Universite de Rennes 1, priority 2007, dated 2013).

molecular target: Rat recombinant DYRK1A (Rattus norvegicus, UniProt Q63470); assay: Assaying of the kinase activity of DYRK1A (33P-ATP, myelin basic protein, P81 filter); assay type: biochemical; settings: 15 μM ATP, 30° C., 30 min; read-out: IC50 DYRK1A;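 note: GST fusion rat DYRK1A made in E. coli, scintillation counting of label bound to substrate, activity as percent of the inhibitor-free maximum after blank subtraction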
Description: Rat recombinant DYRK1A was expressed in E. coli as a GST fusion protein. It was purified by affinity chromatography on beads of immobilized glutathione (elution with free glutathione). […] After incubation at 30° C. for 30 min, 25-μL aliquots of supernatant were spotted onto Whatman P81 phosphocellulose filters and the filters were washed five times in a solution of phosphoric acid (10 ml/L water). The radioactivity incorporated into the substrate, retained on the moist filters, was then counted in the presence of ACS scintillation fluid (Amersham). The control values were subtracted and the activities were expressed as % of the maximum value, i.e. the value obtained in the absence of inhibitors. The IC50 values were calculated from dose-response curves and are given in μM.

Going from `CCOC(=O)C(=O)NC1=N/C(=C\c2ccc3c(c2)OCO3)C(=O)N1C` [IA35] to `CN1C(=O)/C(=C/c2ccc3c(c2)OCO3)N=C1NCC(O)CO` (centres unmarked) [MADE47], the IC50 falls from > 10000 nM to 790 nM.

Compared with `CCCNC1=N/C(=C\c2ccc3c(c2)OCO3)C(=O)N1c1ccccc1` [JR445], `CN1C(=O)/C(=C/c2ccc3c(c2)OCO3)N=C1NCc1ccccc1` [FC097] is lower in IC50: > 10000 nM for the first, 1400 nM for the second. The second is the more potent here.

Compared with `CCSC1=N/C(=C\c2cc(Br)c3c(c2)OCO3)C(=O)N1` [ST280], `CCSC1=N/C(=C\c2ccc3c(c2)OCO3)C(=O)N1` [ST120] is lower in IC50: > 10000 nM for the first, 440 nM for the second. The second is the more potent here.

Compared with `CN1C(=O)/C(=C/c2ccc3c(c2)OCO3)N=C1c1ccc2c(c1)OCO2` [NL88A], `CCCSC1=N/C(=C\c2ccc3c(c2)OCO3)C(=O)N1C` [ST094] is 8.2-fold higher in IC50: 220 nM for the first, 1800 nM for the second.

`CC(C)NC1=N/C(=C\c2ccccn2)C(=O)N1C` [FC109] and `CCSC1=N/C(=C\c2c[nH]c3ccccc23)C(=O)N1C` [FB08] cannot be ordered by IC50: > 10000 nM for the first, > 10000 nM for the second.

First: N#CCSC1=N/C(=C\c2ccc3c(c2)OCO3)C(=O)N1 [ST209]
Second: CN1C(=O)/C(=C/c2ccc3c(c2)OCO3)N=C1SCC1CC1 [ST102]
The IC50 of the first is 8.8-fold lower: 170 nM for the first, 1500 nM for the second. The first is the more potent here.

`CCCCN1C(=O)/C(=C/c2cc3c(cc2Br)OCO3)N=C1SCC` [SB80] and `CCCCN1C(=O)/C(=C/c2ccc3c(c2)OCO3)N=C1NCCC` [JR442] cannot be ordered by IC50: > 10000 nM for the first, > 10000 nM for the second.

Work on `CSC1=N/C(=C\c2ccc(O)cc2)C(=O)N1C` [ST078] yielded an IC50 of 6700 nM.

same assay, conditions: IC50 DYRK1A

`CN1C(=O)/C(=C/c2ccc3c(c2)OCO3)N=C1NCCCCCO` [MADE23] and `CNC1=N/C(=C\c2ccc3c(c2)OCO3)C(=O)N1C` [FC084] are within 1.5-fold of each other in IC50: 3000 nM for the first, 2700 nM for the second.
